Test results taken from patent US20250230193A1, “CYCLIC COMPOUND HAVING SELECTIVE KRAS INHIBITORY EFFECT ON HRAS AND NRAS” (CHUGAI SEIYAKU KABUSHIKI KAISHA, priority 2022, published 2025).
Where a SMILES comes first, the peptide text is derived from it. Bridges are numbered along the chain shown (N, C = ends). [ ]: non-standard residue; d: D form. The star is where a group is joined. hPhe(3-Cl-4-CF3) = N[C@@H](CCc1ccc(C(F)(F)F)c(Cl)c1)C(=O)O; NPrPhe(4-CF3) = CCCN[C@@H](Cc1ccc(C(F)(F)F)cc1)C(=O)O; NMeGly(cPent) = CN[C@H](C(=O)O)C1CCCC1; Hyp = O=C(O)[C@@H]1C[C@@H](O)CN1; NMeD = CN[C@@H](CC(=O)O)C(=O)O; NMeL = CN[C@@H](CC(C)C)C(=O)O; Morpholide = C1CN(*)CCO1; Ac4c = NC1(C(=O)O)CCC1; Sar = CNCC(=O)O

Tests used:
[1] = molecular target: GDP-bound HRAS wild-type protein (Homo sapiens, UniProt P01112); assay: Binding to HRAS by surface plasmon resonance (SPR), Single Cycle Kinetics; conditions: SPR
[2] = molecular target: GDP-bound NRAS wild-type protein (Homo sapiens, UniProt P01111); assay: Binding to NRAS by surface plasmon resonance (SPR), Single Cycle Kinetics; conditions: SPR
[3] = GDP-bound HRAS wild-type vs GDP-bound KRAS wild-type
[4] = GDP-bound NRAS wild-type vs GDP-bound KRAS wild-type
[5] = KD ratio, GDP-bound HRAS wild-type vs GDP-bound KRAS wild-type
[6] = KD ratio, GDP-bound NRAS wild-type vs GDP-bound KRAS wild-type

GDP-bound NRAS wild-type protein, sequence (P01111 whole entry): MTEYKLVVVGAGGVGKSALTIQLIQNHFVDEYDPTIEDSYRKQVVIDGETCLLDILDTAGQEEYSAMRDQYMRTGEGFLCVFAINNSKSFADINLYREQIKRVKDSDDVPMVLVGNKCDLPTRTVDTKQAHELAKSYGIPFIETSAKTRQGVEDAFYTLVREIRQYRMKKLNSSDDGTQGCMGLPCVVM
GDP-bound HRAS wild-type protein, sequence (P01112 whole entry): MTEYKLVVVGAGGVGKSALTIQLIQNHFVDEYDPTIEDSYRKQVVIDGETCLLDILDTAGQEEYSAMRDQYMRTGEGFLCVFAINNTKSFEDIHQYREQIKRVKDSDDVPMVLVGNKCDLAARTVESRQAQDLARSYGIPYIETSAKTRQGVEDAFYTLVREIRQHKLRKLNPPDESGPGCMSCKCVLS

CCCOC[C@H]1C(=O)N[C@@H]([C@@H](C)CC)C(=O)N(C)CC(=O)N(C)[C@H]2C/C=C\CCN(C2=O)[C@@H](Cc2ccc(C)cc2)C(=O)N(C)CC(=O)N[C@@H](CCc2ccc(C(F)(F)F)c(Cl)c2)C(=O)N2C[C@H](CC)C[C@H]2C(=O)NC2(CC(C)(C)C2)C(=O)N(C)[C@@H](C2CCCC2)C(=O)N(C)[C@H](C(=O)N(C)C)CC(=O)N1C [PP2235]
HRAS/KRAS (ratio of KD value with respect to HRAS to KD value with respect to KRAS) [1, 3]: A (a compound having 10 or more and less than 20 is denoted as A) | NRAS/KRAS (ratio of KD value with respect to NRAS to KD value with respect to KRAS) [2, 4]: A (a compound having 10 or more and less than 20 is denoted as A)

CCO[C@@H]1C[C@H]2C(=O)NC3(CCC3)C(=O)N(C)[C@@H](C3CCCC3)C(=O)N3CCC[C@@H]3CC(=O)N(C)[C@@H](CC3CC3)C(=O)N[C@@H]([C@@H](C)CC)C(=O)N(C)CC(=O)N(C)[C@H]3C/C=C\CCN(C3=O)[C@@H](Cc3ccc(C(F)(F)F)cc3)C(=O)N(C)CC(=O)N[C@@H](CCc3cc(F)c(C(F)(F)F)c(F)c3)C(=O)N2C1 [PP1613]
HRAS/KRAS (ratio of KD value for HRAS to KD value for KRAS) [1, 5]: B (a compound having 3 or more and less than 10 is denoted as B) | NRAS/KRAS (ratio of KD value for NRAS to KD value for KRAS) [2, 6]: B (a compound having 3 or more and less than 10 is denoted as B)

CCO[C@@H]1C[C@H]2C(=O)NC3(CCCC3)C(=O)N(C)[C@@H](C3CCCC3)C(=O)N(C)[C@H](C)CC(=O)N(C)[C@@H](CC(C)C)C(=O)N[C@@H]([C@@H](C)CC)C(=O)N(C)CC(=O)N(C)[C@H]3C/C=C\CCN(C3=O)[C@@H](Cc3ccc(C(F)(F)F)cc3)C(=O)N(C)CC(=O)N[C@@H](CCc3cc(F)c(C(F)(F)F)c(F)c3)C(=O)N2C1 [PP1096]
HRAS/KRAS (ratio of KD value with respect to HRAS to KD value with respect to KRAS) [1, 5]: B (a compound having 3 or more and less than 10 is denoted as B) | NRAS/KRAS (ratio of KD value with respect to NRAS to KD value with respect to KRAS) [2, 6]: B (a compound having 3 or more and less than 10 is denoted as B)

CCCN1C(=O)CN(C)C(=O)CN(C)C(=O)[C@H]([C@@H](C)CC)NC(=O)[C@H](CC(C)C)N(C)C(=O)C[C@@H](C(=O)N(C)C)NC(=O)[C@H](C2CCCC2)N(C)C(=O)C2(CCC2)NC(=O)[C@@H]2CCCN2C(=O)[C@H](CCc2ccc(C(F)(F)F)c(Cl)c2)NC(=O)CN(C)C(=O)[C@@H]1Cc1ccc(C(F)(F)F)cc1 [PP0356] ([NMeL]I[Sar][Sar][NPrPhe(4-CF3)][Sar][hPhe(3-Cl-4-CF3)]P[Ac4c][NMeGly(cPent)]D-NMe2; lactam N-11)
HRAS/KRAS (ratio of KD for GDP-bound HRAS wild-type to KD for KRAS) ([1]; KD ratio HRAS/KRAS): B (a compound having 3 or more and less than 10 is denoted as B) | NRAS/KRAS (ratio of KD for GDP-bound NRAS wild-type to KD for KRAS) ([2]; KD ratio NRAS/KRAS): B (a compound having 3 or more and less than 10 is denoted as B)

CCCN1C(=O)CN(C)C(=O)CNC(=O)[C@H]([C@@H](C)CC)NC(=O)[C@H](CC(C)C)N(C)C(=O)C[C@@H](C(=O)N2CCOCC2)N(C)C(=O)[C@H](C2CCCC2)N(C)C(=O)C2(CCC2)NC(=O)[C@@H]2C[C@@H](OCC)CN2C(=O)[C@H](CCc2ccc(C(F)(F)F)c(Cl)c2)NC(=O)CN(C)C(=O)[C@@H]1Cc1ccc(C(F)(F)F)cc1 [PP0397] ([NMeL]IG[Sar][NPrPhe(4-CF3)][Sar][hPhe(3-Cl-4-CF3)][Hyp](Et)[Ac4c][NMeGly(cPent)][NMeD]-Morpholide; lactam N-11)
HRAS/KRAS (ratio of KD for GDP-bound HRAS wild-type to KD for KRAS) ([1]; KD ratio HRAS/KRAS): C (A compound having a KD ratio of 0.1 or more and less than 3 is denoted as C) | NRAS/KRAS (ratio of KD for GDP-bound NRAS wild-type to KD for KRAS) ([2]; KD ratio NRAS/KRAS): C (A compound having a KD ratio of 0.1 or more and less than 3 is denoted as C)

CCO[C@@H]1C[C@H]2C(=O)NC3(CCC3)C(=O)N(C)[C@@H](C3CCCC3)C(=O)N(C)[C@H](C(=O)N3CCOCC3)CC(=O)N(C)[C@@H](CC3CC3)C(=O)N[C@@H]([C@@H](C)CC)C(=O)N(C)CC(=O)N(C)[C@H]3CCCCCN(C3=O)[C@@H](Cc3ccc(F)cc3)C(=O)N(C)CC(=O)N[C@@H](CCc3cc(F)c(C(F)(F)F)c(F)c3)C(=O)N2C1 [PP1178]
HRAS/KRAS (ratio of KD value with respect to HRAS to KD value with respect to KRAS) [1, 5]: B (a compound having 3 or more and less than 10 is denoted as B) | NRAS/KRAS (ratio of KD value with respect to NRAS to KD value with respect to KRAS) [2, 6]: B (a compound having 3 or more and less than 10 is denoted as B)

CCOC[C@H]1C(=O)N[C@@H]([C@@H](C)CC)C(=O)N(C)CC(=O)N(C)[C@H]2C/C=C\CCN(C2=O)[C@@H](Cc2ccc(C)cc2)C(=O)N(C)CC(=O)N[C@@H](CCc2ccc(C(F)(F)F)c(Cl)c2)C(=O)N2C[C@@H](C)C[C@H]2C(=O)NC2(CC(C)(C)C2)C(=O)N(C)[C@@H](C2CCCC2)C(=O)N(C)[C@H](C(=O)N(C)C)CC(=O)N1C [PP2394]
HRAS/KRAS (ratio of KD value with respect to HRAS to KD value with respect to KRAS) [1, 3]: B (a compound having 3 or more and less than 10 is denoted as B) | NRAS/KRAS (ratio of KD value with respect to NRAS to KD value with respect to KRAS) [2, 4]: A (a compound having 10 or more and less than 20 is denoted as A)

CC[C@H](C)[C@@H]1NC(=O)[C@H](CC)N(C)C(=O)C[C@@H](C(=O)N(C)C)N(C)C(=O)[C@H](C2CCCC2)N(C)C(=O)C2(CCC2)NC(=O)[C@@H]2CCN2C(=O)[C@H](CCc2cc(F)c(C(F)(F)F)c(F)c2)NC(=O)CN(C)C(=O)[C@H](Cc2ccc(C(F)(F)F)cc2)N2CCCC[C@@H](C2=O)N(C)C(=O)CN(C)C1=O [PP0657]
HRAS/KRAS (ratio of KD value with respect to GDP-bound HRAS wild-type protein to KD value with respect to KRAS) ([1]; KD ratio HRAS/KRAS): B (a compound having 3 or more and less than 10 is denoted as B) | NRAS/KRAS (ratio of KD value with respect to GDP-bound NRAS wild-type protein to KD value with respect to KRAS) ([2]; KD ratio NRAS/KRAS): B (a compound having 3 or more and less than 10 is denoted as B)
